“And” between values parts separate entries of the source, which are not always exact repeats. Equal entries are not always repeated. Marks after values point to notes of the source that are not given here.
Assays:
Test in all cases: Spot test of partially purified bacteriocins on strains grown on agar
Streptococcus = tested on: Streptococcus
Leuconostoc = tested on: Leuconostoc
G negative strains = type: cell-based
Clostridia spores = type: cell-based, Clostridium
Brochothrix = tested on: Brochothrix
Bacillus spores = type: cell-based
Lactobacillus = tested on: Lactobacillus
Listeria = tested on: Listeria
Staphylococcus = tested on: Staphylococcus
Carnobacteria = tested on: Carnobacteria
[1] = tested on: Clostridia vegetative cells; type: cell-based, Clostridium
Enterococcus = tested on: Enterococcus
Pediococcus = tested on: Pediococcus
Lactococcus = tested on: Lactococcus
[2] = tested on: Bacillus vegetative cells; type: cell-based

Substance | Number of strains inhibited/Number of strains tested (Streptococcus; 1AU (10 μl/spot of 100 AU/ml)) | Number of strains inhibited/Number of strains tested (Streptococcus; 8AU (10 μl/spot of 800 AU/ml)) | Number of strains inhibited/Number of strains tested (Leuconostoc; 1AU (10 μl/spot of 100 AU/ml)) | Number of strains inhibited/Number of strains tested (Leuconostoc; 8AU (10 μl/spot of 800 AU/ml)) | Number of strains inhibited/Number of strains tested (G negative strains; 1AU (10 μl/spot of 100 AU/ml)) | Number of strains inhibited/Number of strains tested (G negative strains; 8AU (10 μl/spot of 800 AU/ml)) | Number of strains inhibited/Number of strains tested (Clostridia spores; 1AU (10 μl/spot of 100 AU/ml)) | Number of strains inhibited/Number of strains tested (Clostridia spores; 8AU (10 μl/spot of 800 AU/ml)) | Number of strains inhibited/Number of strains tested (Brochothrix; 1AU (10 μl/spot of 100 AU/ml)) | Number of strains inhibited/Number of strains tested (Brochothrix; 8AU (10 μl/spot of 800 AU/ml)) | Number of strains inhibited/Number of strains tested (Bacillus spores; 1AU (10 μl/spot of 100 AU/ml)) | Number of strains inhibited/Number of strains tested (Bacillus spores; 8AU (10 μl/spot of 800 AU/ml)) | Number of strains inhibited/Number of strains tested (Lactobacillus; 1AU (10 μl/spot of 100 AU/ml)) | Number of strains inhibited/Number of strains tested (Lactobacillus; 8AU (10 μl/spot of 800 AU/ml)) | Number of strains inhibited/Number of strains tested (Listeria; 1AU (10 μl/spot of 100 AU/ml)) | Number of strains inhibited/Number of strains tested (Listeria; 8AU (10 μl/spot of 800 AU/ml)) | Number of strains inhibited/Number of strains tested (Staphylococcus; 1AU (10 μl/spot of 100 AU/ml)) | Number of strains inhibited/Number of strains tested (Staphylococcus; 8AU (10 μl/spot of 800 AU/ml)) | Number of strains inhibited/Number of strains tested (Carnobacteria; 1AU (10 μl/spot of 100 AU/ml)) | Number of strains inhibited/Number of strains tested (Carnobacteria; 8AU (10 μl/spot of 800 AU/ml)) | other results
Nisin | 1/3 | 2/3 | 9/9 | 9/9 | 0/29 | 0/29 | 5/7 | 7/7 | 14/14 | 14/14 | 5/5 | 5/5 | 16/17 | 17/17 | 42/42 | 42/42 | 3/7 | 7/7 | 19/19 | 19/19 | Number of strains inhibited/Number of strains tested ([1]; 1AU (10 μl/spot of 100 AU/ml)): 7/8; Number of strains inhibited/Number of strains tested ([1]; 8AU (10 μl/spot of 800 AU/ml)): 8/8; Number of strains inhibited/Number of strains tested (Enterococcus; 1AU (10 μl/spot of 100 AU/ml)): 12/14; Number of strains inhibited/Number of strains tested (Enterococcus; 8AU (10 μl/spot of 800 AU/ml)): 14/14; Number of strains inhibited/Number of strains tested (Pediococcus; 1AU (10 μl/spot of 100 AU/ml)): 3/3; Number of strains inhibited/Number of strains tested (Pediococcus; 8AU (10 μl/spot of 800 AU/ml)): 3/3; Number of strains inhibited/Number of strains tested (Lactococcus; 1AU (10 μl/spot of 100 AU/ml)): 4/8; Number of strains inhibited/Number of strains tested (Lactococcus; 8AU (10 μl/spot of 800 AU/ml)): 6/8^t and 6/8; Number of strains inhibited/Number of strains tested ([2]; 1AU (10 μl/spot of 100 AU/ml)): 5/5; Number of strains inhibited/Number of strains tested ([2]; 8AU (10 μl/spot of 800 AU/ml)): 5/5
cbn A | 0/3 | 0/3 | 1/9 | 1/9 | 0/29 | 0/29 | 0/7 | 0/7 | 0/14 | 0/14 | 0/5 | 0/5 | 0/17 | 1/17 | 4/42 | 21/42 | 0/7 | 1/7 | 0/14 | 0/14 | Number of strains inhibited/Number of strains tested ([1]; 1AU (10 μl/spot of 100 AU/ml)): 0/8; Number of strains inhibited/Number of strains tested ([1]; 8AU (10 μl/spot of 800 AU/ml)): 0/8; Number of strains inhibited/Number of strains tested (Enterococcus; 1AU (10 μl/spot of 100 AU/ml)): 2/14; Number of strains inhibited/Number of strains tested (Enterococcus; 8AU (10 μl/spot of 800 AU/ml)): 2/14; Number of strains inhibited/Number of strains tested (Pediococcus; 1AU (10 μl/spot of 100 AU/ml)): 0/3; Number of strains inhibited/Number of strains tested (Pediococcus; 8AU (10 μl/spot of 800 AU/ml)): 0/3; Number of strains inhibited/Number of strains tested (Lactococcus; 1AU (10 μl/spot of 100 AU/ml)): 0/8; Number of strains inhibited/Number of strains tested (Lactococcus; 8AU (10 μl/spot of 800 AU/ml)): 0/8; Number of strains inhibited/Number of strains tested ([2]; 1AU (10 μl/spot of 100 AU/ml)): 2/5; Number of strains inhibited/Number of strains tested ([2]; 8AU (10 μl/spot of 800 AU/ml)): 2/5
